In patent US11458153B2, “Drug delivery composition comprising a self-assembled gelator” (The Brigham and Women's Hospital, Inc., priority 2008, dated 2022):
“Also recorded” adds a separate entry of the source.

Key:
[1] = Gelation studies with Apn-based prodrug gelators in water and organic solvents; type: physicochemical; set-up: key to Gelation ability: G = gel; P = precipitate; S = soluble; I = insoluble
From the text: Gelation Studies with Prodrug-Based Gelators. Gelation abilities of Apn based amphiphilic prodrugs have been investigated thoroughly in a wide range of solvents. For detailed gelation results, see Table 1, below). Typically, the required amount of gelator was placed in a glass vial and with an appropriate solvent. […] The resulting solution was slowly cooled to room temperature and gelation was visually observed. […] Despite of prolonged heating Apn-11-CH3 was not soluble in water. […] In addition, Apn-7-COOH is soluble in basic solutions (pH is more than 8).
All gels were opaque in nature and stable for several weeks.
Preparation of Gels. Typically, gelator (0.1-5 mg) and required solvent (0.1-1 mL) were placed into a 2 mL scintillation vial, which was then sealed with a screw cap. The vial was heated with shaking until the solid was completely dissolved.

[2] = system: mesenchymal stem cells (MSCs); assay: MSC viability, trypan blue exclusion; type: cell-based, human
Description: Cytocompatibility. The cytocompatibility of prodrugs generated from small modification of known drugs was investigated. […] To test the cyto compatibility of prodrug-based amphiphiles and bolaamphiphiles, and their effect on cell characteristics such as viability, proliferation, adhesion and cell phenotype, a series of experiments was performed with mesenchymal stem cells (MSCs). To gain more insight into the effect of modification, unmodified drug Apn was used as a control. The viability of control cells and cells treated with Apn, Apn-7-COOH and Apn-8-Apn was examined with trypan blue assay. Use of Mesenchymal stem cells is appropriate given that these systems may be used for localized release likely into connective tissues.
Mesenchymal Stem Cell Culture. Primary human mesenchymal stem cells were maintained in expansion media that consisted of 15% Fetal Bovine Serum (selected for its ability to expand MSCs), 1% (v/v) L-Glutamine, 1% (v/v) Penn-Strep, and α-MEM. All experiments were performed using MSCs at passage number 4-6.
Viability, Adhesion and Proliferation Characteristics. The viability of the cells was examined using trypan blue exclusion. […] The media was then aspirated and the cells were detached with 200 μL of cell dissociated solution (similar quantities of floating cells were observed between the groups, typically 5-10 per well). 300 μL of media was added and the total 500 μL of the cell dispersion was collected in an eppendorf tubes. From this 10 μL of cell dispersion was diluted to 1:1 with 4% trypan blue solution and cells were counted in a hemocytometer to determine the number viable (non-blue) and nonviable (blue) cells. A control for this experiment included cells treated with only phosphate buffer saline (PBS) without an amphiphile. Cell adhesion was quantified by measuring the number of adherent cells on tissue culture surfaces in 96 well plates after incubating with amphiphiles for 12 hours. For proliferation studies, 5000 cells were added to each well of a 96 well plate in 200 μL of MSC cell expansion media, and appropriate amphiphiles were then added and incubated at 37° C. and 5% CO2. Proliferation was quantified by manually tabulating the number of cells within the flask at multiple time points (1, 2, 3, 4, 6 and 8 days) with light microscopy at 10×.

[3] = system: mesenchymal stem cells (MSCs); assay: MSC adipogenic differentiation, Oil Red O staining; type: cell-based, human; conditions: 250 μM, 23 days of induction
Description: (§1) Unlike typical fibroblast cell lines used for toxicity screening, cultured mesenchymal stem cells are highly sensitive to the presence of soluble factors and can often loose their capacity for multi-lineage differentiation or differentiate into non-desired lineages depending on the culture conditions. To examine the impact of the acetaminophen amphiphilic prodrugs on multi-lineage differentiation of MSCs, cells were treated with adipogenic and osteogenic induction media in presence of amphiphiles followed by respective colorimetric histological staining.
Adipogenic Differentiation. MSCs were seeded in the wells of 24 well plates, and were culture in MSC expansion media until they reach 90% confluence (note: in control samples there was no amphiphile present, whereas in experimental samples 250 μM of Apn-based amphiphile was present). Adipogenic differentiation was induced by culturing the cells for 23 days in adipogenic induction media (from Lonza—MSCs Adipogenic Single Quote kit containing h-Insulin (recombinant), L-Glutamine, Dexamethasone, Indomethacin, IBMX (3-isobuty-1-methyl-xanthine), Pen/Strep) and adipogenic maintenance media (from Lonza—MSCs Adipogenic Single Quote kit containing h-Insulin (recombinant), L-Glutamine, Pen/Strep). […] Adipogenesis was evaluated by Oil Red O staining. Following aspiration of the media, cells were washed once with PBS, and fixed in PBS with 3.7% formaldehyde for 30 min at room temperature. Following fixation cells were rinsed with distilled water for a few minutes, and incubated with isopropanol containing an Oil Red O working solution (prepared by diluting 30 mL of 0.5% isopropanol/Oil Red O solution with 20 mL of distilled water). After 45 minutes culture well were rinsed twice with distilled water and 1 mL of hematoxylin was added to each well for 1 minute followed by aspiration and washing with distilled water. The wells were viewed using an inverted phase contrast microscope.

[4] = system: mesenchymal stem cells (MSCs); assay: MSC osteogenic differentiation, alkaline phosphatase staining; type: cell-based, human; conditions: 250 μM, 23 days
Description: as §1
Osteogenic Differentiation. MSCs were seeded in the wells of 24 well plates, and were culture in MSC expansion media until they reach 90% confluence (note: in control samples there was no amphiphile present, whereas in experimental samples 250 μM of Apn-based amphiphile was present). Osteogenic differentiation was induced by culturing the cells for 23 days in osteogenic induction media (from Lonza—MSCs Osteogenic Single Quote kit) containing dexamethasone, β-glycerophosphate, L-ascorbic acid-2-phosphate, and α-MEM. The media in both groups was changed every 3 days (note: each time while changing the media, 250 μM of Apn-based amphiphiles were added to maintain constant concentration). Osteogenesis was evaluated by cell membrane associated alkaline phosphatase activity. Alkaline phosphatase activity was examined after 23 days by carefully aspirating the media and washing the cells with PBS. The cells were fixed with 3.7% formaldehyde solution for 15 min at room temperature followed by rinsing with distilled water. 0.06% Red Violet LB salt solution in Tris HCl was added with distilled water containing DMF and Naphthol AS MX-PO4. The plates were incubated for 45 minutes at room temperature and then the wells were rinsed 3 times with distilled water and imaged under with inverted phase contrast microscope.

CC(=O)Nc1ccc(OC(=O)CCCCCCC(=O)O)cc1 [Apn-7-COOH]
solubility in basic solutions ([1]; pH is more than 8): soluble | Gelation ability ([1]; solvent chloroform): S | Gelation ability ([1]; solvent ethanol): S | Gelation ability ([1]; solvent ethyl acetate): I | Gelation ability ([1]; solvent isopropanol): I | Gelation ability ([1]; solvent methanol): S | Gelation ability ([1]; solvent t-butanol): I | Gelation ability ([1]; solvent water): G | minimum gelation concentration ([1]; solvent water): 0.4 wt/v % | gelation in water (in words) ([1]; water / aqueous solutions): forms excellent gels | viable cells ([2]; 250 μM, 48 hours incubation): 87% | viability rates over concentration range ([2]; up to 500 μM, 48 hours): not significantly affected | adipogenic differentiation, Oil Red O (ORO) staining [3]: robust capacity; also recorded: equally stained for ORO | osteogenic differentiation, alkaline phosphatase (ALP) staining [4]: robust capacity; also recorded: equally stained for ALP
